Several values for one entry are separate records, joined by “and”; a condition that tells them apart may be missing. Equal entries are not always repeated.
Legend:
Assay in all cases: cell-based
[1] = target: hNav1.7 (Homo sapiens, UniProt Q15858); conditions: IonWorks Quattro; read-out: IC50 Nav1.7
[2] = target: hNav1.4 (Homo sapiens, UniProt P35499); conditions: for IC50: IonWorks Quattro, read-out: IC50 Nav1.4
[3] = target: hNav1.3 (Homo sapiens, UniProt Q9NY46); conditions: IonWorks Quattro; read-out: IC50 Nav1.3
[4] = target: hNav1.5 (Homo sapiens, UniProt Q14524); conditions: IonWorks Quattro; read-out: IC50 Nav1.5

Chain of hNav1.3 (Q9NY46 whole entry): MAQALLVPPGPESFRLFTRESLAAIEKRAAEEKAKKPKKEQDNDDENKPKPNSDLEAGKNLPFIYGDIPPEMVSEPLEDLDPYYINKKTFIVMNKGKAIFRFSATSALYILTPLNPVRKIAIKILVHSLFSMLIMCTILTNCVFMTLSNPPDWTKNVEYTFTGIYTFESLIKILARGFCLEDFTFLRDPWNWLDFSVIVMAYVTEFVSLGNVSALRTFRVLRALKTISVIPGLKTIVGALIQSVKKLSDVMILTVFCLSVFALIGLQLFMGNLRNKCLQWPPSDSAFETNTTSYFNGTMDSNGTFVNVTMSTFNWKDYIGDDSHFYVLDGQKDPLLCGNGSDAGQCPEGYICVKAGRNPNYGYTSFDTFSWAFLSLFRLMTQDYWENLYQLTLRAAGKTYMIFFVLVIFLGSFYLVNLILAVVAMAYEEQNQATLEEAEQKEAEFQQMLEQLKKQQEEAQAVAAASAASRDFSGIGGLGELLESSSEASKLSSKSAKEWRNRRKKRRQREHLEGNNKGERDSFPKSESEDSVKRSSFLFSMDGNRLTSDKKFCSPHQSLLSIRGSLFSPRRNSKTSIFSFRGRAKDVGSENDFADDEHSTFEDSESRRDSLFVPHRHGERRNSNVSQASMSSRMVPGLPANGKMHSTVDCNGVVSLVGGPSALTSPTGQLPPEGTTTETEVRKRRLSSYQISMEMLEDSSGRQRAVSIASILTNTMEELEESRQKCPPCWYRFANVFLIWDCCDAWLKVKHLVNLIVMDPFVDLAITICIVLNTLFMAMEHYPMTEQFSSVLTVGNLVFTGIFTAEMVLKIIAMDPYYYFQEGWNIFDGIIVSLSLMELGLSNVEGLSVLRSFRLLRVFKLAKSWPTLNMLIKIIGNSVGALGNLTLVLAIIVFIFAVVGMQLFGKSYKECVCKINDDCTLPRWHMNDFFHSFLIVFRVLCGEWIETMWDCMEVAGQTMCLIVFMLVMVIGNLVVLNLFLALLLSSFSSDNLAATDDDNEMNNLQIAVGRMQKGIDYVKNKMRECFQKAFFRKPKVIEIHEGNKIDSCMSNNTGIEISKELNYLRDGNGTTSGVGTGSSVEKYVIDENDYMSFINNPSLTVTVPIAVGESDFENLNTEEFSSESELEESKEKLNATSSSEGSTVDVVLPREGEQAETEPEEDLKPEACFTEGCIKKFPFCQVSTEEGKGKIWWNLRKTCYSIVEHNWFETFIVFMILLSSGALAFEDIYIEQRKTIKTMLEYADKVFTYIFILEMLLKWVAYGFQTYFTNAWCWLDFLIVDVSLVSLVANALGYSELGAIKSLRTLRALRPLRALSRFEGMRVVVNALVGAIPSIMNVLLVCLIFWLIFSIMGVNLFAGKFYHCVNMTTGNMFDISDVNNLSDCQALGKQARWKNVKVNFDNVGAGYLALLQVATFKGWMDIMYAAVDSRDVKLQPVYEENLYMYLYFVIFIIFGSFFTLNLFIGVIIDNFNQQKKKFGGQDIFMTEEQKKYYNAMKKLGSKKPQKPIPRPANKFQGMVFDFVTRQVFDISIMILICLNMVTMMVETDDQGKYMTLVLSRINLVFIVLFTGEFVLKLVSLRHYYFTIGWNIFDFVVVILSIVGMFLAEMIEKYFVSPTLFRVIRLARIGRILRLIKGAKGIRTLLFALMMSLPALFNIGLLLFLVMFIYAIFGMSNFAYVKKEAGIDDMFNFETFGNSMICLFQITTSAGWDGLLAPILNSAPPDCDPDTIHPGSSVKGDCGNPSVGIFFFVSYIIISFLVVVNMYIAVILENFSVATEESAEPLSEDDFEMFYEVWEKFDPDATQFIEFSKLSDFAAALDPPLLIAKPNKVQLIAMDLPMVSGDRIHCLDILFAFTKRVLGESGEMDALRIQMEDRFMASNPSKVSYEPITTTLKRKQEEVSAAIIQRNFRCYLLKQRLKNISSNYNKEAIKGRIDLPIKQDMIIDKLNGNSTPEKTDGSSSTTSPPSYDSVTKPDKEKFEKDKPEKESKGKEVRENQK
Chain of hNav1.4 (P35499 whole entry): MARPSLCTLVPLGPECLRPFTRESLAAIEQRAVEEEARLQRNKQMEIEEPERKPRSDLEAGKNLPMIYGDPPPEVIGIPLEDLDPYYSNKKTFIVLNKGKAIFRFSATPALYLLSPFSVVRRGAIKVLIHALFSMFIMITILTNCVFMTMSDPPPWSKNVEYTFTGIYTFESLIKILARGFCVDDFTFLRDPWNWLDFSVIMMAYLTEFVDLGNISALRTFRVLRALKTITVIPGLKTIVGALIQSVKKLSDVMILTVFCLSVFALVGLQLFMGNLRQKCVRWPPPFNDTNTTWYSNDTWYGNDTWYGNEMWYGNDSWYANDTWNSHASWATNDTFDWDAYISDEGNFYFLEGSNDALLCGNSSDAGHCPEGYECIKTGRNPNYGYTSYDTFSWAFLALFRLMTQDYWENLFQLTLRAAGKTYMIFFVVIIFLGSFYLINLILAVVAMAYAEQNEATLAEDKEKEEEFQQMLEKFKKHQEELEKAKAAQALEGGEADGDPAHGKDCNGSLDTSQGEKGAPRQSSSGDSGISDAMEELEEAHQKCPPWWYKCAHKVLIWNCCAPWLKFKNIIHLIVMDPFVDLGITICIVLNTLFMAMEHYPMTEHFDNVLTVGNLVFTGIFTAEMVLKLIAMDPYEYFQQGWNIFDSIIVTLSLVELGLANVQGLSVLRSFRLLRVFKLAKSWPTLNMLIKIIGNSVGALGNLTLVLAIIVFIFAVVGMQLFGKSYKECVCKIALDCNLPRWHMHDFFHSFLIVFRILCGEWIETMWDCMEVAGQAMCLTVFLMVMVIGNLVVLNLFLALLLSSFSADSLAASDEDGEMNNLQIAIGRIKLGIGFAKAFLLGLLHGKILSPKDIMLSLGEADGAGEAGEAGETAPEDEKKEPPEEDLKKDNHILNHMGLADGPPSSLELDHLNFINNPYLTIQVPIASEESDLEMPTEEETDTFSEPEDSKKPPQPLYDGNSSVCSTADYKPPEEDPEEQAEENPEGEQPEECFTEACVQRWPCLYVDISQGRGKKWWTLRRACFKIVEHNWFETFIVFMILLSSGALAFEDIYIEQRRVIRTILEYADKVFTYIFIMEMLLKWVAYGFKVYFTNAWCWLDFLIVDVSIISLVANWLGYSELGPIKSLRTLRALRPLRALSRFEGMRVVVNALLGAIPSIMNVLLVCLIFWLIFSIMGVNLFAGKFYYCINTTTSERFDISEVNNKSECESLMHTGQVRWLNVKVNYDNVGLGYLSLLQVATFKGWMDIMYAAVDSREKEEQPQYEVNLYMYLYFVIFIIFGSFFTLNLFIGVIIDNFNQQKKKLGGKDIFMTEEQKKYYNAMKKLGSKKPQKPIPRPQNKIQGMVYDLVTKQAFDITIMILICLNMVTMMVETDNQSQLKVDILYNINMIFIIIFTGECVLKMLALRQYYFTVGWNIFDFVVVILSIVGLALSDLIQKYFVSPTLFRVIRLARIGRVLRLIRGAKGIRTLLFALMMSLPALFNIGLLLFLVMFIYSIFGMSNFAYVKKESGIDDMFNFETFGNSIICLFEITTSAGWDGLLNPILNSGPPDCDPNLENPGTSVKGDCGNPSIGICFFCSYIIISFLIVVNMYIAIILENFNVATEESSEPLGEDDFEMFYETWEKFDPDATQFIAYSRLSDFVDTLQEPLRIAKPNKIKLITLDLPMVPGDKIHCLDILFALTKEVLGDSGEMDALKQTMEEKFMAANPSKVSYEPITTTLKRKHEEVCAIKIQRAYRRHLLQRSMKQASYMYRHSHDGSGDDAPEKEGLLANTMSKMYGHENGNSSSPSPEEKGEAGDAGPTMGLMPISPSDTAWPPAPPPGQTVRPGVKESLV

| SMILES | IC50 [1] | IC50 [2] [µM] | Nav1.4/Nav1.7 ([2]; ratio of IonWorks Quattro IC50 values) | IC50 [3] [µM] | IC50 [4] [µM] |
| --- | --- | --- | --- | --- | --- |
| CC[C@H](C)[C@H](NC(=O)[C@@H](NC(=O)[C@H](CCCCN)NC(=O)[C@H](CCCNC(=N)N)NC(=O)[C@@H]1CSSC[C@@H]2NC(=O)[C@H](C)NC(=O)[C@H](CCCNC(=N)N)NC(=O)[C@H](CCCCN)NC(=O)[C@H](CO)NC(=O)[C@H](CC(=O)O)NC(=O)[C@@H]3CSSC[C@H](NC(=O)[C@H](Cc4ccc(C(=O)O)cc4)NC(=O)[C@H](CC(C)C)NC(=O)CNC(=O)[C@H](CCC(=O)O)NC(=O)[C@H](CSSC[C@H](NC(=O)[C@@H](N)Cc4ccc(O)cc4)C(=O)N[C@@H](CCC(N)=O)C(=O)N[C@@H](CCCCN)C(=O)N[C@@H](Cc4c[nH]c5ccccc45)C(=O)N[C@@H](CCSC)C(=O)N[C@@H](Cc4c[nH]c5ccccc45)C(=O)N[C@@H]([C@@H](C)O)C(=O)N3)NC2=O)C(=O)N[C@@H](CCCCN)C(=O)N[C@@H](CC(C)C)C(=O)N[C@@H](Cc2c[nH]c3ccccc23)C(=O)N1)[C@@H](C)CC)C(N)=O [compound 114] | 0.21 µM | > 5 | 24 | > 5 | 14.2 |
| CC[C@H](C)[C@H](NC(=O)[C@H](Cc1ccc(O)cc1)NC(=O)[C@H](CCCCN)NC(=O)[C@H](CCCNC(=N)N)NC(=O)[C@@H]1CSSC[C@@H]2NC(=O)[C@H](C)NC(=O)[C@H](CCCNC(=N)N)NC(=O)[C@H](CCCCN)NC(=O)[C@H](CO)NC(=O)[C@H](CC(=O)O)NC(=O)[C@@H]3CSSC[C@H](NC(=O)[C@H](CCC(=O)O)NC(=O)[C@H](CC(C)C)NC(=O)CNC(=O)[C@H](CCC(=O)O)NC(=O)[C@H](CSSC[C@H](NC(=O)[C@@H](N)Cc4ccc(O)cc4)C(=O)N[C@@H](CCC(N)=O)C(=O)N[C@@H](CCCCN)C(=O)N[C@@H](Cc4c[nH]c5ccccc45)C(=O)N[C@@H](CCSC)C(=O)N[C@@H](Cc4c[nH]c5ccccc45)C(=O)N[C@@H]([C@@H](C)O)C(=O)N3)NC2=O)C(=O)N[C@@H](CCCCN)C(=O)N[C@@H](CC(C)C)C(=O)N[C@@H](CC(N)=O)C(=O)N1)C(N)=O [compound 229] | > 5 µM | > 5 |  | > 5 | > 5 |
| CSCC[C@@H]1NC(=O)[C@H](Cc2c[nH]c3ccccc23)NC(=O)[C@H](CCCCN)NC(=O)[C@H](CCC(N)=O)NC(=O)[C@@H](NC(=O)[C@@H](N)Cc2ccc(O)cc2)CSSC[C@@H]2NC(=O)[C@@H]3CSSC[C@@H](C(=O)N[C@@H](CCCNC(=N)N)C(=O)N[C@@H](CCCCN)C(=O)N[C@@H](Cc4ccc(O)cc4)C(=O)N[C@@H](CCCNC(N)=O)C(N)=O)NC(=O)[C@H](Cc4c[nH]c5ccccc45)NC(=O)[C@H](CC(C)C)NC(=O)[C@H](CCCCN)NC(=O)[C@H](CSSC[C@H](NC(=O)[C@H]([C@@H](C)O)NC(=O)[C@H](Cc4c[nH]c5ccccc45)NC1=O)C(=O)N[C@@H](CC(=O)O)C(=O)N[C@@H](CO)C(=O)N[C@@H](CCCCN)C(=O)N[C@@H](CCCNC(=N)N)C(=O)N[C@@H](C)C(=O)N3)NC(=O)[C@H](CCC(=O)O)NC(=O)[C@H](CC(C)C)NC(=O)CNC(=O)[C@H](CCC(=O)O)NC2=O [compound 241] | 1.2 µM | > 5 |  | > 5 | > 5 |
| CC[C@H](C)[C@H](NC(=O)[C@H](Cc1ccc(O)cc1)NC(=O)[C@H](CCCCN)NC(=O)[C@H](CCCNC(=N)N)NC(=O)[C@@H]1CSSC[C@@H]2NC(=O)[C@H](C)NC(=O)[C@H](CCCNC(=N)N)NC(=O)[C@H](CCCCN)NC(=O)[C@H](CO)NC(=O)[C@H](CC(=O)O)NC(=O)[C@@H]3CSSC[C@H](NC(=O)[C@H](CCC(=O)O)NC(=O)[C@H](CC(C)C)NC(=O)CNC(=O)[C@H](CCC(=O)O)NC(=O)[C@H](CSSC[C@H](NC(=O)[C@@H](N)Cc4ccc(O)cc4)C(=O)N[C@@H](CCC(N)=O)C(=O)N[C@@H](CCCCN)C(=O)N[C@@H](CC(N)=O)C(=O)N[C@@H](CCSC)C(=O)N[C@@H](Cc4c[nH]c5ccccc45)C(=O)N[C@@H]([C@@H](C)O)C(=O)N3)NC2=O)C(=O)N[C@@H](CCCCN)C(=O)N[C@@H](CC(C)C)C(=O)N[C@@H](Cc2c[nH]c3ccccc23)C(=O)N1)C(N)=O [compound 201] | 4.2 µM and > 5 µM | > 5 |  | > 5 | > 5 |
| CCC[C@@H]1NC(=O)[C@H](CC(C)C)NC(=O)[C@H](CCCCN)NC(=O)[C@@H]2CSSC[C@@H]3NC(=O)[C@H]([C@@H](C)O)NC(=O)[C@H](Cc4c[nH]c5ccccc45)NC(=O)[C@H](CCSC)NC(=O)[C@H](Cc4c[nH]c5ccccc45)NC(=O)[C@H](CCCCN)NC(=O)[C@H](CCC(N)=O)NC(=O)[C@@H](NC(=O)[C@@H](N)Cc4ccc(O)cc4)CSSC[C@H](NC(=O)[C@H](CSSC[C@@H](C(=O)N[C@@H](CCCNC(=N)N)C(=O)N[C@@H](CCCCN)C(=O)N[C@@H](Cc4ccc(O)cc4)C(=O)N[C@H](C(N)=O)[C@@H](C)CC)NC1=O)NC(=O)[C@H](C)NC(=O)[C@H](CCCNC(=N)N)NC(=O)[C@H](CCCCN)NC(=O)[C@H](CO)NC(=O)[C@H](CC(=O)O)NC3=O)C(=O)N[C@@H](CCC(=O)O)C(=O)NCC(=O)N[C@@H](CC(C)C)C(=O)N[C@@H](CCC(=O)O)C(=O)N2 [compound 226] | > 5 µM | > 5 |  | > 5 | > 5 |
| CCCC[C@@H]1NC(=O)[C@H](Cc2c[nH]c3ccccc23)NC(=O)[C@H](CCCCN)NC(=O)[C@H](CCC(N)=O)NC(=O)[C@@H](NC(=O)[C@@H](N)Cc2ccc(O)cc2)CSSC[C@@H]2NC(=O)[C@@H]3CSSC[C@@H](C(=O)N[C@@H](CCCNC(=N)N)C(=O)N[C@@H](CCCCN)C(=O)N[C@H](C(=O)N[C@H](C(N)=O)[C@@H](C)CC)[C@@H](C)CC)NC(=O)[C@H](Cc4c[nH]c5ccccc45)NC(=O)[C@H](CC(C)C)NC(=O)[C@H](CCCCN)NC(=O)[C@H](CSSC[C@H](NC(=O)[C@H](Cc4cn(CCCOCCOCCOCCOCCOCCOCCOCCOCCOCCOCCN)nn4)NC(=O)[C@H](Cc4c[nH]c5ccccc45)NC1=O)C(=O)N[C@@H](CC(=O)O)C(=O)N[C@@H](CO)C(=O)N[C@@H](CCCCN)C(=O)N[C@@H](CCCNC(=N)N)C(=O)N[C@@H](C)C(=O)N3)NC(=O)[C@H](CCCNC(=N)N)NC(=O)[C@H](CC(C)C)NC(=O)CNC(=O)[C@H](CCC(=O)O)NC2=O [compound 254] | 6.4 µM | > 7 |  | > 7 | > 7 |
| CCCC[C@@H]1NC(=O)[C@H](CC(C)C)NC(=O)[C@H](CCCCN)NC(=O)[C@@H]2CSSC[C@@H]3NC(=O)[C@H]([C@@H](C)O)NC(=O)[C@H](Cc4c[nH]c5ccccc45)NC(=O)[C@H](CCSC)NC(=O)[C@H](Cc4c[nH]c5ccccc45)NC(=O)[C@H](CCCCN)NC(=O)[C@H](CCC(N)=O)NC(=O)[C@@H](NC(=O)[C@@H](N)Cc4ccc(O)cc4)CSSC[C@H](NC(=O)[C@H](CSSC[C@@H](C(=O)N[C@@H](CCCNC(=N)N)C(=O)N[C@@H](CCCCN)C(=O)N[C@@H](Cc4ccc(O)cc4)C(=O)N[C@H](C(N)=O)[C@@H](C)CC)NC1=O)NC(=O)[C@H](C)NC(=O)[C@H](CCCNC(=N)N)NC(=O)[C@H](CCCCN)NC(=O)[C@H](CO)NC(=O)[C@H](CC(=O)O)NC3=O)C(=O)N[C@@H](CCC(=O)O)C(=O)NCC(=O)N[C@@H](CC(C)C)C(=O)N[C@@H](CCC(=O)O)C(=O)N2 [compound 225] | > 5 µM | > 5 |  | > 5 | > 5 |
